Literature values in patent US5908764A, “Methods and compositions for increasing production of erythromycin” (Solidago AG, priority 1997, dated 1999).

Assays:
horse heart myoglobin = horse heart myoglobin (Equus caballus, UniProt P68082); conditions: oxygen affinity; Wittenberg et al., 1985
[1] = target: Vitreoscilla hemoglobin (VHb) (Vitreoscilla stercoraria, UniProt P04252); conditions: koff rate for oxygen; Orii and Webster, 1986

Chain of horse heart myoglobin (P68082 whole entry): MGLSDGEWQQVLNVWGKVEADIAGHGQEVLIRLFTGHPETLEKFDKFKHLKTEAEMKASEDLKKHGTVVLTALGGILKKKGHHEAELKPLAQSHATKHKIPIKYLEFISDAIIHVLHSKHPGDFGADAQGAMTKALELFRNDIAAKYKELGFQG

For `O=O` [oxygen], the Kd (horse heart myoglobin) is given as 790 nM and the koff [1] is given as 5600 s⁻¹.
